Test results published in patent US3966850A, “O-ethyl-S-n-propyl-O-(2-bromo-4-cyanophenyl)-thionothiol-phosphoric acid ester” (priority 1973, dated 1976).

Experiments:
[1] = system: insects; conditions: known from U.S. Pat. No. 3,607,991; cited from earlier work
[2] = system: insects and mites (Acarina); test: Insecticidal and acaricidal activity (statement in words); assay type: in vivo; conditions: sucking and biting insects and mites (Acarina)
[3] = system: warm-blooded animals; test: Toxicity to warm-blooded animals (statement in words); assay type: in vivo; conditions: as compared to prior art compounds of analogous structure and same type of action
[4] = Toxicity test/peroral (LD50, evaluation after 7 days); conditions: rat, in vivo, po
From the text: Test animal: Albino rat (Rattus norvegicus)
Dosing was effected volumetrically after weighing the test animals. A steel knob-ended probe was used for oral administration.

Row | SMILES | insecticidal activity [1] | insecticidal and acaricidal activity [2] | toxicity to warm-blooded animals [3] | LD50 at 168 h [4] [mg/kg]
1 | CCOP(=S)(OCC)Oc1ccc(C#N)cc1 [Compound A, O,O-diethyl-O-(4-cyanophenyl)-thionophosphoric acid ester] | possess insecticidal activity | – | – | –
2 | CCCSP(=S)(OCC)Oc1ccc(C#N)cc1Br (stereo not shown) [I, O-ethyl-S-n-propyl-O-(2-bromo-4-cyanophenyl)-thionothiol-phosphoric acid ester] | – | good insecticidal and acaricidal activity | very low toxicity | 100 to 250
